According to PubChem BioAssay (NCI):
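Following 48 hours of exposure in 96-well plates, responses at five concentrations were used to interpolate endpoints linearly. At the TGI there is no net growth.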

Tests used:
Assay in all cases: NCI-60 cell line screen, 48 h
[1] = test system: OVCAR-3 ovarian
[2] = test system: EKVX NSCLC
[3] = test system: NCI-H460 lung
[4] = test system: A498 renal
[5] = test system: SK-MEL-2 melanoma
[6] = test system: MOLT-4 leukemia
[7] = test system: SW-620 colon
[8] = test system: NCI-H23 lung
[9] = test system: HL-60(TB) leukemia
[10] = test system: HT29 colon
[11] = test system: U251 CNS
[12] = test system: ACHN renal
[13] = test system: MALME-3M melanoma
[14] = test system: HCT-15 colon
[15] = test system: K-562 leukemia
[16] = test system: SK-OV-3 ovarian
[17] = test system: MDA-MB-435
[18] = test system: MDA-MB-231 breast

Row | Structure (SMILES) | TGI [1] [µM] | TGI [2] [µM] | TGI [3] [µM] | TGI [4] [µM] | TGI [5] [µM] | TGI [6] [µM] | TGI [7] [µM] | TGI [8] [µM] | TGI [9] [µM] | TGI [10] [µM] | TGI [11] [µM] | TGI [12] [µM] | TGI [13] [µM] | TGI [14] [µM] | TGI [15] [µM] | TGI [16] [µM] | TGI [17] [µM] | TGI [18] [µM]
1 | COc1cc2c(oc(=O)c3cc4cc([Si](C)(C)C)oc4c(OC)c32)c2cccc(O)c12 | > 100 | > 100 | > 100 | > 100 | > 100 | > 100 | > 100 | > 100 | > 100 | > 100 | > 100 | > 100 | > 100 | > 100 | > 100 | > 100 |  | 
2 | Cc1c2ccncc2c(C)c2c1[nH]c1ccc(Oc3ccccc3)cc12 | 7.75 | > 100 |  | 11.4 |  | 6.44 | > 100 | > 53.1 | 5.88 | 3.84 | 3.37 | 17.3 | 3.58 |  | 4.01 | 15.9 |  | 
3 | Cc1ccc(/C=C/C(=O)c2sc(-n3nc(-c4ccccc4)cc3-c3ccccc3)nc2C)cc1 | > 100 | > 100 | > 100 | > 100 | > 100 | > 100 | > 100 | > 100 | > 100 | > 100 | > 100 | > 100 | > 100 | > 100 | > 100 | > 100 |  | 
4 | COC(=O)CN1C(=O)C2(C(=O)OC)OC1(c1ccc([N+](=O)[O-])cc1)C1C(=O)N(c3ccccc3)C(=O)C12 (stereo not drawn) |  | > 100 |  | > 100 | > 100 | > 100 | > 100 | > 100 | > 100 | > 100 | > 100 | > 100 | > 100 | > 100 |  | > 100 | > 100 | > 100
5 | COCN(C)c1nc(N(C)C)nc(N(C)C)n1 | > 100 | > 100 | > 100 | > 100 | > 100 | > 100 | > 100 | > 100 | > 100 | > 100 | > 100 | > 100 | > 100 | > 100 | > 100 | > 100 |  | 
6 | CCN(CC)C(=S)SCC(=O)Nc1nc2c(s1)CCCC2 |  |  | > 100 | > 100 | > 100 | > 100 | > 100 | > 100 | 47.6 | > 100 | > 100 | > 100 | > 100 | > 100 |  | > 100 |  | 
7 | c1ccc2c(c1)Cc1c(Cc3csc4ccccc34)ccc3cccc-2c13 | > 100 | > 100 | > 100 |  | > 100 | > 100 | > 100 | > 100 | > 100 | > 100 | > 100 | > 100 | > 100 | > 100 | > 100 |  |  | 
8 | COc1cc([C@@H]2c3cc4c(cc3[C@@H](OC(=O)c3cccc(N)c3)C3COC(=O)[C@@H]32)OCO4)cc(OC)c1O (stereo partly drawn) | > 100 | > 100 | 20.4 | 16.6 | 73.3 | > 59.8 | > 100 | 6.2 | > 41.2 | 24.5 | 22.9 | 15.3 | > 56.3 | > 52.6 | > 100 | > 75.2 |  | 
9 | CN1C(=O)C(C(=O)Nc2ccccn2)C2C[C@@]1(C)Oc1ccccc12 (stereo partly drawn) | > 100 | > 100 | > 100 | > 100 | > 100 | > 100 | > 100 | > 100 | > 100 | > 100 | > 100 | > 100 | > 100 | > 100 | > 100 | > 100 | > 100 | > 100
10 | ClCC[N-]CC[N-]CCCl.ClCC[N-]CC[N-]CCCl.[O-][Cl+3]([O-])([O-])O.[Zn+2] | 32.1 | > 100 | > 71.2 | > 100 | 41.4 | > 100 | 47.2 | > 60.3 | > 100 | > 100 | > 67.3 | 49.6 | 37.4 | > 100 | 68.7 | > 100 |  | 
11 | CC1(C)Cc2c(oc3ncnc(N)c23)CS1 | > 100 | > 100 | > 100 |  | > 100 | > 100 | > 100 | > 100 |  | > 100 | > 100 | > 100 | > 100 | > 100 | > 100 | > 100 |  | 
12 | COc1ccc(OC)c(NC(=O)C(=O)CC(=O)c2sc(-n3nc(-c4ccccc4)cc3-c3ccccc3)nc2C)c1 | > 100 |  | > 100 | > 100 | > 100 | > 100 | > 100 | > 100 | > 100 | > 100 | > 100 |  | > 100 | > 100 | > 100 | > 100 |  | 
13 | COc1ccc(OC)c(/C=C2\CCc3ccccc3C2=O)c1 | 7.67 | 22.7 | 27.5 | 19.7 | 12.8 | 19.8 | 15.4 | 17.3 | 5.96 | 16.7 | 14.4 | 81.2 | 18.5 | 29.3 | 10.8 | 18.8 |  | 
14 | C=CCCCN1CCCC(C)C1=S (stereo not drawn) | > 100 | > 100 | > 100 | > 100 | > 100 | > 100 | > 100 | > 100 | > 100 | > 100 | > 100 | > 100 | > 100 | > 100 | > 100 | > 100 |  | 
